The record followed here is US12473304B2, “Heterocyclic PAD4 inhibitors” (BRISTOL-MYERS SQUIBB COMPANY, priority 2020, dated 2025).

SMILES strings stand for the structures. pIC50: −log10 of the molar value.

A word on the pIC50: it is the IC50 on a negative log10 scale, so that one unit is a factor of ten.

Sequence of human PAD4 (hPAD4) (Q9UM07 whole entry): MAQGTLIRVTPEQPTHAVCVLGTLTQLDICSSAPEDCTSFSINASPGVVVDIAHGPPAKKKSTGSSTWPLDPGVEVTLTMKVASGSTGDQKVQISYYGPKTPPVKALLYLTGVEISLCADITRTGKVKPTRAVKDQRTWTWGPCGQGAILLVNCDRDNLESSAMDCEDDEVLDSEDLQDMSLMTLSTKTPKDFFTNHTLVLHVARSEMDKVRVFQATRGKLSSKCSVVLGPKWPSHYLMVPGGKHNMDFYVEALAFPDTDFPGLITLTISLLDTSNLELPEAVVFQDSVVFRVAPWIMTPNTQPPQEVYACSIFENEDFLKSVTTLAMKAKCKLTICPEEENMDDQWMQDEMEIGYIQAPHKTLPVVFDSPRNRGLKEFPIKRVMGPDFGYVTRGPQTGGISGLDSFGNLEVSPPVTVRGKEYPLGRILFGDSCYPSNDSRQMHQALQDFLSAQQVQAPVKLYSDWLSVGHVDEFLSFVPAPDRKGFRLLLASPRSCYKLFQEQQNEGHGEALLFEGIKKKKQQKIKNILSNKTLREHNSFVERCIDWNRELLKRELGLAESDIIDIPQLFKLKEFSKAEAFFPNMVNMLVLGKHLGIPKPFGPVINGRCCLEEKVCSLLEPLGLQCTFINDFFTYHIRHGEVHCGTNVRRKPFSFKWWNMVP

The assay addresses human PAD4 (hPAD4) (Homo sapiens (Human), UniProt Q9UM07). The assay can be described thus: RFMS Human PAD4 Functional Assay 1. The following applies: RFMS assay 1; 5 nM hPAD4, 250 μM BAEE substrate, 50 μM calcium, 37° C. Type of assay: biochemical. In a few lines: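 Citrullination product read by RapidFire triple-quad MRM against a modified-citrulline internal standard, after TCA stop and 30 min phenyl glyoxal step at 37 °C. Reaction: 250 μM BAEE, 5 nM human PAD4, 90 min at 37 °C, pH 7.5 HEPES buffer with 50 μM calcium and 5 μM TPEN, following 30 min compound–enzyme preincubation (max 50 μM).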
Take `Cc1c(-c2cc3ccc(-c4cccc(CO)c4)cc3n2CC2CC2)nn2cc(C(=O)N3C[C@H](N)C[C@@H](F)C3)ccc12` [Example 371, [3-(2-{6-[(3R,5R)-3-Amino-5-fluoropiperidine-1-carbonyl]-3-methylpyrazolo[1,5-a]pyridin-2-yl}-1-(cyclopropylmethyl)-1H-indol-6-yl)phenyl]methanol]: the pIC50 is 5.97.

Take `Cc1c(-c2cc3ccc(-c4ccccc4C(N)=O)cc3n2CC2CC2)nn2cc(C(=O)N3C[C@H](N)C[C@@H](F)C3)ccc12` [Example 372, 2-(2-{6-[(3R,5R)-3-Amino-5-fluoropiperidine-1-carbonyl]-3-methylpyrazolo[1,5-a]pyridin-2-yl}-1-(cyclopropylmethyl)-1H-indol-6-yl)benzamide]: the pIC50 is 6.72.

Consider `Cc1c(-c2cc3ccc(-c4ccc(C(N)=O)cc4)cc3n2CC2CC2)nn2cc(C(=O)N3C[C@H](N)C[C@@H](F)C3)ccc12` [Example 373, 4-(2-{6-[(3R,5R)-3-Amino-5-fluoropiperidine-1-carbonyl]-3-methylpyrazolo[1,5-a]pyridin-2-yl}-1-(cyclopropylmethyl)-1H-indol-6-yl)benzamide], for which the pIC50 was 6.70.

As for `Cc1c(-c2cc3ccc(-c4cc(Cl)c(CO)cc4F)cc3n2CC2CC2)nn2cc(C(=O)N3C[C@H](N)C[C@@H](F)C3)ccc12` [Example 375, [4-(2-{6-[(3R,5R)-3-Amino-5-fluoropiperidine-1-carbonyl]-3-methylpyrazolo[1,5-a]pyridin-2-yl}-1-(cyclopropylmethyl)-1H-indol-6-yl)-2-chloro-5-fluorophenyl]methanol], the pIC50 is 5.87.

For the compound `Cc1c(-c2ccc3cc(-c4nn5cc(C(=O)N6C[C@H](N)C[C@@H](F)C6)ccc5c4C)n(CC4CC4)c3c2)cc(F)c2[nH]c(=O)ccc12` [Example 376, 6-(2-{6-[(3R,5R)-3-Amino-5-fluoropiperidine-1-carbonyl]-3-methylpyrazolo[1,5-a]pyridin-2-yl}-1-(cyclopropylmethyl)-1H-indol-6-yl)-8-fluoro-5-methyl-1,2-dihydroquinolin-2-one], the negative logarithm of the IC50 (pIC50) was 6.92.

For the compound `Cc1c(-c2cc3ccc(-c4ccc(C(N)=O)cc4Cl)cc3n2CC2CC2)nn2cc(C(=O)N3C[C@H](N)C[C@@H](F)C3)ccc12` [Example 377, 4-(2-{6-[(3R,5R)-3-Amino-5-fluoropiperidine-1-carbonyl]-3-methylpyrazolo[1,5-a]pyridin-2-yl}-1-(cyclopropylmethyl)-1H-indol-6-yl)-3-chlorobenzamide], the negative-log IC50 (pIC50) is 7.05.

For `Cc1cc(-c2ccc3cc(-c4nn5cc(C(=O)N6C[C@H](N)C[C@@H](F)C6)ccc5c4C)n(CC4CC4)c3c2)ccc1C(N)=O` [Example 378, 4-(2-{6-[(3R,5R)-3-Amino-5-fluoropiperidine-1-carbonyl]-3-methylpyrazolo[1,5-a]pyridin-2-yl}-1-(cyclopropylmethyl)-1H-indol-6-yl)-2-methylbenzamide], the pIC50 is 6.35.

Regarding `Cc1c(-c2cc3ccc(-c4ccn5c(C)nnc5c4)cc3n2CC2CC2)nn2cc(C(=O)N3C[C@H](N)C[C@@H](F)C3)ccc12` [Example 379, (3R,5R)-1-{2-[1-(Cyclopropylmethyl)-6-{3-methyl-[1,2,4]triazolo[4,3-a]pyridin-7-yl}-1H-indol-2-yl]-3-methylpyrazolo[1,5-a]pyridine-6-carbonyl}-5-fluoropiperidin-3-amine], the negative logarithm of the IC50 (pIC50) was 6.80.

Consider `Cc1c(-c2cc3ccc(C(C)(C)O)nc3n2CC2CC2)nn2cc(C(=O)N3CCC[C@@H](N)C3)ccc12` [Example 380, 2-(2-{6-[(3R)-3-Aminopiperidine-1-carbonyl]-3-methylpyrazolo[1,5-a]pyridin-2-yl}-1-(cyclopropylmethyl)-1H-pyrrolo[2,3-b]pyridin-6-yl)propan-2-ol], for which the pIC50 was 6.85.

Consider `Cc1c(-c2cc3ccc(C(C)(O)C(F)(F)F)nc3n2CC2CC2)nn2cc(C(=O)N3CC4CCC3[C@@H]4N)cc(F)c12` (stereo partly drawn) [Example 383, 2-(2-{6-[(7R)-7-Amino-2-azabicyclo[2.2.1]heptane-2-carbonyl]-4-fluoro-3-methylpyrazolo[1,5-a]pyridin-2-yl}-1-(cyclopropylmethyl)-1H-pyrrolo[2,3-b]pyridin-6-yl)-1,1,1-trifluoropropan-2-ol], for which the pIC50 was 7.40.

Turning to `Cc1c(-c2cc3ccc(C(C)(O)C4CC4)nc3n2CC2CC2)nn2cc(C(=O)N3CC4CCC3[C@@H]4N)cc(F)c12` (stereo partly drawn) [Example 384, 1-(2-{6-[(7R)-7-Amino-2-azabicyclo[2.2.1]heptane-2-carbonyl]-4-fluoro-3-methylpyrazolo[1,5-a]pyridin-2-yl}-1-(cyclopropylmethyl)-1H-pyrrolo[2,3-b]pyridin-6-yl)-1-cyclopropylethan-1-ol], the pIC50 is 6.70.

Turning to `COc1cc(C(=O)N2C[C@H](N)C[C@@H](F)C2)cn2nc(-c3cc4cccc(C5CCN(C(=O)[C@H]6CC[C@H](O)CC6)CC5)c4n3CC3CC3)c(C)c12` [Example 391, ((3R,5R)-3-Amino-5-fluoropiperidin-1-yl)(2-(1-(cyclopropylmethyl)-7-(1-((1r,4r)-4-hydroxycyclohexane-1-carbonyl)piperidin-4-yl)-1H-indol-2-yl)-4-methoxy-3-methylpyrazolo[1,5-a]pyridin-6-yl)methanone], the pIC50 is 8.00.

As for `COc1cc(C(=O)N2C[C@H](N)C[C@@H](F)C2)cn2nc(-c3cc4cccc(C5CCN(C(=O)[C@@H](C)OC)CC5)c4n3CC3CC3)c(C)c12` [Example 395, (R)-1-(4-(2-(6-((3R,5R)-3-Amino-5-fluoropiperidine-1-carbonyl)-4-methoxy-3-methylpyrazolo[1,5-a]pyridin-2-yl)-1-(cyclopropylmethyl)-1H-indol-7-yl)piperidin-1-yl)-2-methoxypropan-1-one], the negative logarithm of the IC50 (pIC50) is 6.85.

Consider `COCC(=O)N1CCC(c2cccc3cc(-c4nn5cc(C(=O)N6CCC[C@@H](N)C6)cc(OC)c5c4C)n(CC4CC4)c23)CC1` [Example 401, (R)-1-(4-(2-(6-(3-Aminopiperidine-1-carbonyl)-4-methoxy-3-methylpyrazolo[1,5-a]pyridin-2-yl)-1-(cyclopropylmethyl)-1H-indol-7-yl)piperidin-1-yl)-2-methoxyethan-1-one], for which the pIC50 is 7.70.

With `COc1cc(C(=O)N2CCC[C@@H](N)C2)cn2nc(-c3cc4cccc(C5CCN(C(=O)[C@@H](C)OC)CC5)c4n3CC3CC3)c(C)c12` [Example 402, (R)-1-(4-(2-(6-((R)-3-Aminopiperidine-1-carbonyl)-4-methoxy-3-methylpyrazolo[1,5-a]pyridin-2-yl)-1-(cyclopropylmethyl)-1H-indol-7-yl)piperidin-1-yl)-2-methoxypropan-1-one], the negative logarithm of the IC50 (pIC50) is 7.22.

Regarding `COc1cc(C(=O)N2CCC[C@@H](N)C2)cn2nc(-c3cc4cccc(C5CCN(C(=O)[C@H](C)OC)CC5)c4n3CC3CC3)c(C)c12` [Example 403, (S)-1-(4-(2-(6-((R)-3-Aminopiperidine-1-carbonyl)-4-methoxy-3-methylpyrazolo[1,5-a]pyridin-2-yl)-1-(cyclopropylmethyl)-1H-indol-7-yl)piperidin-1-yl)-2-methoxypropan-1-one], the pIC50 was 6.34.

As for `COc1cc(C(=O)N2C[C@H](N)C[C@@H](F)C2)cn2nc(-c3cc4cccc(C5CCN(C(=O)[C@H](C)OC)CC5)c4n3CC3CC3)c(C)c12` [Example 404, (S)-1-(4-(2-(6-((3R,5R)-3-Amino-5-fluoropiperidine-1-carbonyl)-4-methoxy-3-methylpyrazolo[1,5-a]pyridin-2-yl)-1-(cyclopropylmethyl)-1H-indol-7-yl)piperidin-1-yl)-2-methoxypropan-1-one], the negative logarithm of the IC50 (pIC50) is 7.52.

Take `COCC(=O)N1CCC(c2cccc3cc(-c4nn5cc(C(=O)N6C[C@H](N)C[C@@H](F)C6)cc(OC)c5c4C)n(CC4CC4)c23)CC1` [Example 405, 1-(4-(2-(6-((3R,5R)-3-Amino-5-fluoropiperidine-1-carbonyl)-4-methoxy-3-methylpyrazolo[1,5-a]pyridin-2-yl)-1-(cyclopropylmethyl)-1H-indol-7-yl)piperidin-1-yl)-2-methoxyethan-1-one]: the negative logarithm of the IC50 (pIC50) is 7.70.

As to `COc1cc(C(=O)N2CCC[C@@H](N)C2)cn2nc(-c3cc4cccc(C5CCN(C(=O)[C@H]6CC[C@@H](O)CC6)CC5)c4n3CC3CC3)c(C)c12` [Example 406, ((R)-3-Aminopiperidin-1-yl)(2-(1-(cyclopropylmethyl)-7-(1-((1s,4s)-4-hydroxycyclohexane-1-carbonyl)piperidin-4-yl)-1H-indol-2-yl)-4-methoxy-3-methylpyrazolo[1,5-a]pyridin-6-yl)methanone], the pIC50 was 7.05.

Regarding `COc1cc(C(=O)N2C[C@H](N)C[C@@H](F)C2)cn2nc(-c3cc4cccc(C5CCN(C(=O)[C@H]6CC[C@@H](O)CC6)CC5)c4n3CC3CC3)c(C)c12` [Example 407, ((3R,5R)-3-Amino-5-fluoropiperidin-1-yl)(2-(1-(cyclopropylmethyl)-7-(1-((1s,4s)-4-hydroxycyclohexane-1-carbonyl)piperidin-4-yl)-1H-indol-2-yl)-4-methoxy-3-methylpyrazolo[1,5-a]pyridin-6-yl)methanone], the pIC50 is 7.52.

For the compound `COc1cc(C(=O)N2CCC[C@@H](N)C2)cn2nc(-c3cc4cccc(C5CCN(C(=O)[C@H]6CC[C@H](O)CC6)CC5)c4n3CC3CC3)c(C)c12` [Example 408, ((R)-3-Aminopiperidin-1-yl)(2-(1-(cyclopropylmethyl)-7-(1-((1r,4r)-4-hydroxycyclohexane-1-carbonyl)piperidin-4-yl)-1H-indol-2-yl)-4-methoxy-3-methylpyrazolo[1,5-a]pyridin-6-yl)methanone], the pIC50 is 7.40.

In the case of `COc1cc(C(=O)N2C[C@H](N)C[C@@H](F)C2)cn2nc(-c3cc4cccc(C5CCN(C(=O)[C@H]6CC[C@H](O)CC6)CC5)c4n3CC3CC3)c(C)c12` [Example 409, ((3R,5R)-3-Amino-5-fluoropiperidin-1-yl)(2-(1-(cyclopropylmethyl)-7-(1-((1r,4r)-4-hydroxycyclohexane-1-carbonyl)piperidin-4-yl)-1H-indol-2-yl)-4-methoxy-3-methylpyrazolo[1,5-a]pyridin-6-yl)methanone], the pIC50 was 7.40.
